Data reported in patent publication US20240217957A1, “HETEROCYCLIC COMPOUND AND USE THEREOF” (TAKEDA PHARMACEUTICAL COMPANY LIMITED, priority 2022, published 2024).

Target: T1, human OX2 receptor (Homo sapiens, UniProt O43614)
T1 construct: expressed in transfected cells
T1 sequence (O43614 1-444): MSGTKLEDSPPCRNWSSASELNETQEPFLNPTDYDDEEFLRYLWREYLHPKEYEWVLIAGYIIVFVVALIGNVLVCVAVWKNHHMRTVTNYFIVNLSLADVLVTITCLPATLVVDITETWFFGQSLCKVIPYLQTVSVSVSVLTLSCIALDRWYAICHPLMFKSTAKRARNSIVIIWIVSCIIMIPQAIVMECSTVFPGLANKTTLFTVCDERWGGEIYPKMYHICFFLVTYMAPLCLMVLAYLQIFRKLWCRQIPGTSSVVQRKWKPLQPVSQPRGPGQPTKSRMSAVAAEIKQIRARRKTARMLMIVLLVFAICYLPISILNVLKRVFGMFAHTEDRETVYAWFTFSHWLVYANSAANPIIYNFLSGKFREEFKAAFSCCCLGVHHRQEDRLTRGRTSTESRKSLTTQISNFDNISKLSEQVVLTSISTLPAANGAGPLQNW
Test: Measurement of orexin type 2 receptor agonist activity (calcium fluorescence, Fluo-4 AM, FDSS)
Format: cell-based
Settings: compound at 3 μM; CHO cells forcibly expressing human OX2 receptor; DMSO = 0%, 10 nM orexin A (human) = 100%
In short: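 Agonist response is expressed as % of the fluorescence change given by 10 nM human orexin A, with DMSO as 0%, read over 1 min 40 s on FDSS after compound addition. Cells: stable human OX2 (1-444) CHO-K1 clones, dye-loaded with Fluo-4 AM plus probenecid in HEPES-buffered HBSS with 0.1% BSA.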

OX2R agonist activity (3 μM, %) | Structure (SMILES)
102% | Cc1cnc(C2(CF)CC(N3C[C@@H](NS(C)(=O)=O)C(F)(F)C3)=NO2)c(-c2c(F)cccc2F)n1 (stereo partly drawn) [Example 104, N-[(3R)-1-{5-[3-(2,6-difluorophenyl)-5-methylpyrazin-2-yl]-5-(fluoromethyl)-4,5-dihydro-1,2-oxazol-3-yl}-4,4-difluoropyrrolidin-3-yl]methanesulfonamide]
97% | Cc1cnc(C2(CF)CC(N3C[C@H](F)[C@H](NS(C)(=O)=O)C3)=NO2)c(-c2c(F)cccc2F)n1 (stereo partly drawn) [Example 105, N-[(3R,4S)-1-{5-[3-(2,6-difluorophenyl)-5-methylpyrazin-2-yl]-5-(fluoromethyl)-4,5-dihydro-1,2-oxazol-3-yl}-4-fluoropyrrolidin-3-yl]methanesulfonamide]
108% | Cc1ccc(C2CC(N3C[C@@H](NS(C)(=O)=O)C(F)(F)C3)=NO2)c(-c2ncc(F)cc2F)c1 (stereo partly drawn) [Example 106, N-[(3R)-1-{5-[2-(3,5-difluoropyridin-2-yl)-4-methylphenyl]-4,5-dihydro-1,2-oxazol-3-yl}-4,4-difluoropyrrolidin-3-yl]methanesulfonamide]
105% | Cc1cnc(C2(CF)CC(N3C[C@@H](NS(C)(=O)=O)C(F)(F)C3)=NO2)c(-c2c(F)cccc2F)c1 (stereo partly drawn) [Example 108, N-[(3R)-1-{5-[3-(2,6-difluorophenyl)-5-methylpyridin-2-yl]-5-(fluoromethyl)-4,5-dihydro-1,2-oxazol-3-yl}-4,4-difluoropyrrolidin-3-yl]methanesulfonamide]
100% | Cc1cnc(C2(CF)CC(N3C[C@H](F)[C@H](NS(C)(=O)=O)C3)=NO2)c(-c2c(F)cc(F)cc2F)c1 (stereo partly drawn) [Example 110, N-[(3R,4S)-4-fluoro-1-{5-(fluoromethyl)-5-[5-methyl-3-(2,4,6-trifluorophenyl)pyridin-2-yl]-4,5-dihydro-1,2-oxazol-3-yl}pyrrolidin-3-yl]methanesulfonamide]
102% | CS(=O)(=O)N[C@@H]1CN(C2=NOC(c3ccc(F)cc3-c3c(F)cccc3F)C2)CC1(F)F (stereo partly drawn) [Example 111, N-{(3R)-4,4-difluoro-1-[5-(2′,5,6′-trifluoro[1,1′-biphenyl]-2-yl)-4,5-dihydro-1,2-oxazol-3-yl]pyrrolidin-3-yl}methanesulfonamide]
98% | CS(=O)(=O)N[C@@H]1CN(C2=NOC(c3ncc(Cl)cc3-c3c(F)cc(F)cc3F)C2)C[C@@H]1F (stereo partly drawn) [Example 112, N-[(3R,4S)-1-{5-[5-chloro-3-(2,4,6-trifluorophenyl)pyridin-2-yl]-4,5-dihydro-1,2-oxazol-3-yl}-4-fluoropyrrolidin-3-yl]methanesulfonamide]
100% | CS(=O)(=O)N[C@@H]1CN(C2=NOC(CF)(c3ncc(F)cc3-c3c(F)cc(F)cc3F)C2)C[C@@H]1F (stereo partly drawn) [Example 113, N-[(3R,4S)-4-fluoro-1-{5-(fluoromethyl)-5-[5-fluoro-3-(2,4,6-trifluorophenyl)pyridin-2-yl]-4,5-dihydro-1,2-oxazol-3-yl}pyrrolidin-3-yl]methanesulfonamide]
87% | Cc1ccc(C2CC(N3C[C@@H](NS(C)(=O)=O)C(F)(F)C3)=NO2)c(-c2c(F)cccc2F)n1 (stereo partly drawn) [Example 114, N-[(3R)-1-{5-[2-(2,6-difluorophenyl)-6-methylpyridin-3-yl]-4,5-dihydro-1,2-oxazol-3-yl}-4,4-difluoropyrrolidin-3-yl]methanesulfonamide]
100% | CCS(=O)(=O)N[C@@H]1CN(C2=NOC(CF)(c3ncc(Cl)cc3-c3c(F)cccc3F)C2)C[C@@H]1F (stereo partly drawn) [Example 115, N-[(3R,4S)-1-{5-[5-chloro-3-(2,6-difluorophenyl)pyridin-2-yl]-5-(fluoromethyl)-4,5-dihydro-1,2-oxazol-3-yl}-4-fluoropyrrolidin-3-yl]ethanesulfonamide]
100% | CS(=O)(=O)N[C@@H]1CN(C2=NOC(CF)(c3ncc(F)cc3-c3c(F)cccc3F)C2)C[C@@H]1F (stereo partly drawn) [Example 116, N-[(3R,4S)-1-{5-[3-(2,6-difluorophenyl)-5-fluoropyridin-2-yl]-5-(fluoromethyl)-4,5-dihydro-1,2-oxazol-3-yl}-4-fluoropyrrolidin-3-yl]methanesulfonamide]
100% | CC1(c2ncc(F)cc2-c2c(F)cccc2F)CC(N2C[C@H](F)[C@H](NS(C)(=O)=O)C2)=NO1 (stereo partly drawn) [Example 118, N-[(3R,4S)-1-{5-[3-(2,6-difluorophenyl)-5-fluoropyridin-2-yl]-5-methyl-4,5-dihydro-1,2-oxazol-3-yl}-4-fluoropyrrolidin-3-yl]methanesulfonamide]
101% | CS(=O)(=O)N[C@@H]1CN(C2=NOC(c3ccc(F)cc3-c3c(F)cccc3F)C2)C[C@@H]1F (stereo partly drawn) [Example 119, N-{(3R,4S)-4-fluoro-1-[5-(2′,5,6′-trifluoro[1,1′-biphenyl]-2-yl)-4,5-dihydro-1,2-oxazol-3-yl]pyrrolidin-3-yl}methanesulfonamide]
102% | CN(C)S(=O)(=O)N[C@@H]1CN(C2=NOC(c3ncc(F)cc3-c3c(F)cc(F)cc3F)C2)C[C@@H]1F (stereo partly drawn) [Example 120, N′-[(3R,4S)-4-fluoro-1-{5-[5-fluoro-3-(2,4,6-trifluorophenyl)pyridin-2-yl]-4,5-dihydro-1,2-oxazol-3-yl}pyrrolidin-3-yl]-N,N-dimethylsulfuric diamide]
98% | CN(C)S(=O)(=O)N[C@@H]1CN(C2=NOC(c3ncc(Cl)cc3-c3c(F)cccc3F)C2)C[C@@H]1F (stereo partly drawn) [Example 121, N′-[(3R,4S)-1-{5-[5-chloro-3-(2,6-difluorophenyl)pyridin-2-yl]-4,5-dihydro-1,2-oxazol-3-yl}-4-fluoropyrrolidin-3-yl]-N,N-dimethylsulfuric diamide]
102% | CC1(c2ncc(F)cc2-c2c(F)cccc2F)CC(N2CC[C@H](NS(C)(=O)=O)C2)=NO1 (stereo partly drawn) [Example 122, N-[(3S)-1-{5-[3-(2,6-difluorophenyl)-5-fluoropyridin-2-yl]-5-methyl-4,5-dihydro-1,2-oxazol-3-yl}pyrrolidin-3-yl]methanesulfonamide]
100% | CN(C)S(=O)(=O)N[C@@H]1CN(C2=NOC(c3ccc(Cl)cc3-c3ncc(F)cc3F)C2)C[C@@H]1F (stereo partly drawn) [Example 123, N′-[(3R,4S)-1-{5-[4-chloro-2-(3,5-difluoropyridin-2-yl)phenyl]-4,5-dihydro-1,2-oxazol-3-yl}-4-fluoropyrrolidin-3-yl]-N,N-dimethylsulfuric diamide]
97% | Cc1ccc(C2CC(N3C[C@H](F)[C@H](NS(C)(=O)=O)C3)=NO2)c(-c2ncc(F)cc2F)c1 (stereo partly drawn) [Example 124, N-[(3R,4S)-1-{5-[2-(3,5-difluoropyridin-2-yl)-4-methylphenyl]-4,5-dihydro-1,2-oxazol-3-yl}-4-fluoropyrrolidin-3-yl]methanesulfonamide]
104% | Cc1ccc(C2CC(N3C[C@H](F)[C@H](NS(=O)(=O)N(C)C)C3)=NO2)c(-c2ncc(F)cc2F)c1 (stereo partly drawn) [Example 125, N′-[(3R,4S)-1-{5-[2-(3,5-difluoropyridin-2-yl)-4-methylphenyl]-4,5-dihydro-1,2-oxazol-3-yl}-4-fluoropyrrolidin-3-yl]-N,N-dimethylsulfuric diamide]
